Test system: Porcine Skin
Assay: Porcine Skin Test (thermo-mechanical analyzer deflection, 20 gram load)
Experimental: A feature of the present invention is that malonate salts are those which impart to the composition a positive Flexibility Value of at least 1, preferably at least 1.1 relative to water in the Porcine Skin Test. This test utilizes a thermo-mechanical analyzer with a 20 gram load to a one-cm diameter disc of Porcine Skin from which the immediate deflection is recorded in mm. Water serves as a control. Skin samples are measured before and 24 hours after one, two and three treatments. These treatments consist of 150 μl of each composition being applied to the skin for five minutes, then removed without rinsing. Thereafter, drying is performed at 21° C. and less than 100% relative humidity. Data transformation consists of determining the ratio of the deflection value after three applications of the test composition to the deflection value of the water standard. The ratio is defined as the Flexibility Value.
A variety of carboxylic acid salts were evaluated to determine their response in a Porcine Skin Test. A Perkin-Elmer Thermo-Mechanical Analyzer, Model TMS-1, was operated with a 20 gram load placed to a center of a one-cm diameter disc of Porcine Skin. Deflection of the skin in mm was immediately recorded. The sample size was six pieces of skin per treatment. Water was used as a control. […] Each was measured dry before and 24 hours after one, two and three treatments. […]

Substance: Dimethylethanolammonium Malonate [Malonate Salt]
- Flexibility Value (test material solution, 150 μl applied 5 minutes, ratio of deflection after three applications to deflection of water standard (water = 1.00)): 1.36
- effect on skin flexibility (in words) (test material solutions, versus water): significantly more flexible

From patent publication US20040185073A1, “Cosmetic compositions containing salts of malonic acid” (Unilever Home & Personal Care USA, Division of Conopco, Inc., priority 2003, published 2004)
